Drawing on patent US9067922B2, “Chemical compounds” (Pfizer Limited, priority 2013, dated 2015), this text covers IC50 for 31 compounds.

URAT-1 transporter, sequence (Q96S37 other isoform, or with tags, fused parts or gaps): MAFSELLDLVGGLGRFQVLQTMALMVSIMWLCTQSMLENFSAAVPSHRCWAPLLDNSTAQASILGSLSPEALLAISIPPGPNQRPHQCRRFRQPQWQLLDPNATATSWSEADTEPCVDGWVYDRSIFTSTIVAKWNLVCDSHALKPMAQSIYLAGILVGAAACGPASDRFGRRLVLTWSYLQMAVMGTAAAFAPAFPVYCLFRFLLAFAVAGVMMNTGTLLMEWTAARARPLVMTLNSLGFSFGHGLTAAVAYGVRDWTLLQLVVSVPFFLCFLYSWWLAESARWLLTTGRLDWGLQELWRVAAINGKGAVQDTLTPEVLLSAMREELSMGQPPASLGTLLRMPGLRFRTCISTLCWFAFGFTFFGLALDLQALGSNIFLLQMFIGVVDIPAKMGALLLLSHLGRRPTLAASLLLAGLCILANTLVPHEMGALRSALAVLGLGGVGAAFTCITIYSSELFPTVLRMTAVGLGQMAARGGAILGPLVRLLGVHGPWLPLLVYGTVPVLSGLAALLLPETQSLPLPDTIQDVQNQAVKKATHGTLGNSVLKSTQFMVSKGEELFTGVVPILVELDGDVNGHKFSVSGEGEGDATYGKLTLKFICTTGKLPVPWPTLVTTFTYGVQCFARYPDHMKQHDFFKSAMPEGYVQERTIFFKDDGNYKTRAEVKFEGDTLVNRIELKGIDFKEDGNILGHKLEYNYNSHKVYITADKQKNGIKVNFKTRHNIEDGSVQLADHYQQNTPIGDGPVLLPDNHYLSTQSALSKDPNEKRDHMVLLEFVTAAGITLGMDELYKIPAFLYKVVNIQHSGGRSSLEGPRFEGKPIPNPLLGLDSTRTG

The assay concerns the target URAT-1 transporter (Homo sapiens (Human), UniProt Q96S37). The assay is described as follows: URAT-1 inhibitor activity: [14C]-uric acid uptake in CHO-URAT1(L)GFP#8 (CHO#8) cells, scintillation proximity. Type of assay: cell-based. The following applies: inhibition of [14C]-uric acid (30 nM) uptake into CHO#8 cells; compound 0 to 10 μM; 4 parameter logistic fit. From the text: The nucleotide sequence for the long isoform of URAT1 (NM_144585) was C-terminally fused to that of enhanced green fluorescent protein (eGFP) (hereinafter referred to as URAT1(L)GFP). The combined sequence was codon-optimised and custom synthesized. The synthesized sequence was generated in pDONR221 Gateway entry vector (Invitrogen Life Technologies) prior to cloning in pLenti6.3/V5 Gateway destination vector (Invitrogen Life Technologies).
Lentiviral particles were generated according to ViraPower HiPerform expression system procedure (Invitrogen Life Technologies) and used to transduce CHO cells. […] The clonal pools were sorted using fluorescence-activated cell sorting (FACS) on the basis of GFP expression with the gating set at the top 50% of expression into single cells which were subsequently expanded to generate clonal lines. […] This cell line was used for all screening activities and is referred to as CHO-URAT1(L)GFP#8 or CHO#8.
The potency of the compounds of formula (I) as inhibitors of the URAT-1 transporter was determined as follows.
CHO#8 cells were cultured in cell line maintenance flasks in medium consisting of Dulbecco's modified Eagle medium (DMEM) with high glucose and sodium pyruvate (4.5 g of glucose per liter, Invitrogen Life Technologies), supplemented with heat-inactivated foetal bovine serum (FBC, 10% v/v), 1×NEAA (non-essential amino acids) and blasticidin (10 μg/ml). Cultures were grown in 175 cm^2 tissue culture flasks in a humidified incubator at approximately 37° C. in approximately 95% air/5% CO2. Near confluent CHO#8 cell cultures were harvested by trypsinisation, re-suspended in culture medium and the process was repeated once or twice weekly to provide sufficient cells for use.
Assay ready flasks were generated by the same method, except the cells were not cultured in blasticidin.
Assay ready frozen cells were generated by freezing 40,000,000 cells in 1 ml of FBS (without blasticidin) containing 10% DMSO per vial. One vial was sufficient for 5 assay plates. Each vial was thawed rapidly to 37° C., washed and re-suspended in pre-warmed culture medium for seeding onto assay plates.
CHO#8 cells were seeded onto Cytostar™ 96-well plates at a density of […]. The cells were cultured for 1 day at approximately 37° C. in a humidified incubator containing approximately 5% CO2 in air. After approximately 24 hours culture, cells were used for uptake experiments.
On the day of assay, culture medium was removed from the wells and the cells were washed once with 50 μL of chloride-containing buffer (136.7 mM NaCl, 5.36 mM KCl, 0.952 mM CaCl2, 0.441 mM KH2PO4, 0.812 mM MgSO4, 5.6 mM D-glucose, 0.383 mM Na2HPO4.2H2O, 10 mM HEPES, pH 7.4 with NaOH). The cells were pre-incubated with another 50 μL of chloride-containing buffer for one hour at approximately 37° C. in a humidified incubator containing approximately 5% CO2 in air.
Assay compound plates were prepared by diluting the compounds of formula (I) with chloride-free buffer (125 mM Na-gluconate, 4.8 mM K-gluconate, 1.3 mM Ca-gluconate, 1.2 mM KH2PO4, 1.2 mM MgSO4, 5.6 mM D-glucose, 25 mM HEPES, pH 7.4 with NaOH) in 100% DMSO to a final concentration of 1% DMSO. [^14C]-Uric Uric acid working stock was made by addition of radiolabeled compound to a final concentration of 120 nM in chloride-free buffer. In all wells, the final assay concentration of solvent (DMSO) was 0.25%; the final assay concentration of [^14C]-uric acid was 30 nM in chloride-free buffer and the final compound of formula (I) concentrations ranged from 0 to 10 μM.
After pre-incubation, cells were washed with 50 μL of chloride-free buffer and another 50 μL of chloride-free buffer was added.
In general terms: In a scintillation proximity assay essentially only radioactivity close to the scintillant gives light.
For orientation: IC50 means the concentration that inhibits the measured activity by half. The low end stands for inhibition by little substance, the high end for a need for much substance. In turn, `N#Cc1cc(S(=O)(=O)Nc2ccc(F)cn2)ccc1Oc1ccccc1C(F)(F)F` [Example 51, 3-cyano-N-(5-fluoropyridin-2-yl)-4-[2-(trifluoromethyl)phenoxy]benzenesulfonamide] showed a 50% inhibitory concentration (IC50) of 171 nM.

In the case of `N#Cc1cc(S(=O)(=O)Nc2ccc(F)cn2)ccc1Oc1ccc(N)cc1` [Example 224, 4-(4-aminophenoxy)-3-cyano-N-(5-fluoropyridin-2-yl)benzenesulfonamide], the 50% inhibitory concentration (IC50) was above 10000 nM.

With `COc1cc(C#N)ccc1Oc1ccc(S(=O)(=O)Nc2ccc(F)cn2)cc1C#N` [Example 204, 3-cyano-4-(4-cyano-2-methoxyphenoxy)-N-(5-fluoropyridin-2-yl)benzenesulfonamide], the 50% inhibitory concentration (IC50) was above 10000 nM.

Regarding `COc1cc(Cl)ccc1Oc1ccc(S(=O)(=O)Nc2ccc(F)cn2)cc1C#N` [Example 143, 4-(4-chloro-2-methoxyphenoxy)-3-cyano-N-(5-fluoropyridin-2-yl)benzenesulfonamide], the half-maximal inhibitory concentration (IC50) turned out to be 79 nM.

Take `Cc1cc(Cl)cc(Oc2ccc(S(=O)(=O)Nc3ccc(F)cn3)cc2C#N)c1C` [Example 159, 4-(5-chloro-2,3-dimethylphenoxy)-3-cyano-N-(5-fluoropyridin-2-yl)benzenesulfonamide]: the half-maximal inhibitory concentration (IC50) was 514 nM.

`CC(C)c1cc(Oc2ccc(S(=O)(=O)Nc3ccc(F)cn3)cc2C#N)ccc1Cl` [Example 164, 4-[4-chloro-3-(propan-2-yl)phenoxy]-3-cyano-N-(5-fluoropyridin-2-yl)benzenesulfonamide] had an IC50 of 6160 nM.

`Cc1ccc(Oc2ccc(S(=O)(=O)Nc3ccc(F)cn3)cc2C#N)c(Cl)c1C` [Example 178, 4-(2-chloro-3,4-dimethylphenoxy)-3-cyano-N-(5-fluoropyridin-2-yl)benzenesulfonamide] yielded a half-maximal inhibitory concentration (IC50) above 10000 nM.

Consider `Cc1cccc(Cl)c1Oc1ccc(S(=O)(=O)Nc2ccc(F)cn2)cc1C#N` [Example 123, 4-(2-chloro-6-methylphenoxy)-3-cyano-N-(5-fluoropyridin-2-yl)benzenesulfonamide], for which the midpoint of inhibition, the IC50, lay at 91 nM.

`CC(C)c1cccc(Oc2ccc(S(=O)(=O)Nc3ccc(F)cn3)cc2C#N)c1` [Example 57, 3-cyano-N-(5-fluoropyridin-2-yl)-4-[3-(propan-2-yl)phenoxy]benzenesulfonamide] registered an IC50 above 10000 nM.

The compound `COc1ccc(F)cc1Oc1ccc(S(=O)(=O)Nc2ccc(F)cn2)cc1C#N` [Example 120, 3-cyano-4-(5-fluoro-2-methoxyphenoxy)-N-(5-fluoropyridin-2-yl)benzenesulfonamide] displayed an IC50 above 10000 nM.

`O=S(=O)(Nc1ncccn1)c1cc(Cl)c(Oc2ccc(F)c(F)c2)cc1F` [compound 210] registered an IC50 above 10000 nM.

In turn, `Cc1ccc(Oc2ccc(S(=O)(=O)Nc3ccc(F)cn3)cc2C#N)c(C)c1Cl` [Example 175, 4-(3-chloro-2,4-dimethylphenoxy)-3-cyano-N-(5-fluoropyridin-2-yl)benzenesulfonamide] yielded a half-maximal inhibitory concentration (IC50) of 455 nM.

In turn, `CC(C)(C)c1ccc(Oc2ccc(S(=O)(=O)Nc3ccc(F)cn3)cc2C#N)c(Cl)c1` [Example 127, 4-(4-tert-butyl-2-chlorophenoxy)-3-cyano-N-(5-fluoropyridin-2-yl)benzenesulfonamide] yielded an IC50 above 10000 nM.

Compound `N#Cc1ccc(Oc2ccc(S(=O)(=O)Nc3ccc(F)cn3)cc2C#N)cc1F` [Example 43, 3-cyano-4-(4-cyano-3-fluorophenoxy)-N-(5-fluoropyridin-2-yl)benzenesulfonamide] registered a half-maximal inhibitory concentration (IC50) of 53 nM.

For `N#Cc1ccc(Oc2ccc(S(=O)(=O)Nc3ccc(F)cn3)c(F)c2)cc1F` [Example 99, 4-(4-cyano-3-fluorophenoxy)-2-fluoro-N-(5-fluoropyridin-2-yl)benzenesulfonamide], the half-inhibitory concentration (IC50) worked out at 29 nM.

`N#Cc1cc(S(=O)(=O)Nc2ccc(F)cn2)ccc1Oc1cccc(Cl)c1Cl` [Example 3, 3-cyano-4-(2,3-dichlorophenoxy)-N-(5-fluoropyridin-2-yl)benzenesulfonamide] gave an IC50 of 141 nM.

The compound `COc1cc(Cl)ccc1Oc1ccc(S(=O)(=O)Nc2cccnn2)cc1Cl` [Example 81, 3-chloro-4-(4-chloro-2-methoxyphenoxy)-N-(pyridazin-3-yl)benzenesulfonamide] came in with an IC50 above 10000 nM.

With `N#Cc1cc(S(=O)(=O)Nc2ccc(F)cn2)ccc1Oc1cc(F)c(F)cc1F` [Example 130, 3-cyano-N-(5-fluoropyridin-2-yl)-4-(2,4,5-trifluorophenoxy)benzenesulfonamide], inhibition was half-maximal at 119 nM (IC50).

`N#Cc1ccc(Oc2ccc(S(=O)(=O)Nc3ccncc3)cc2C#N)cc1Cl` [Example 100, 4-(3-chloro-4-cyanophenoxy)-3-cyano-N-(pyridin-4-yl)benzenesulfonamide] returned an IC50 above 10000 nM.

Turning to `N#Cc1ccc(Oc2ccc(S(=O)(=O)Nc3ncc(F)cn3)cc2C#N)cc1Cl` [Example 91, 4-(3-chloro-4-cyanophenoxy)-3-cyano-N-(5-fluoropyrimidin-2-yl)benzenesulfonamide], half-maximal inhibition (IC50) was put at 1950 nM.

In turn, `CCc1ccccc1Oc1ccc(S(=O)(=O)Nc2ccc(F)cn2)cc1C#N` [Example 46, 3-cyano-4-(2-ethylphenoxy)-N-(5-fluoropyridin-2-yl)benzenesulfonamide] yielded an IC50 of 107 nM.

For the compound `N#Cc1cc(S(=O)(=O)Nc2ccc(F)cn2)ccc1Oc1cnc(OC(F)F)c(Cl)c1` [compound 231], 53 nM corresponded to half-maximal inhibition (IC50).

As to `Cc1ccc(NS(=O)(=O)c2ccc(Oc3cccc(Cl)c3C#N)cc2)nc1` [Example 221, 4-(3-chloro-2-cyanophenoxy)-N-(5-methylpyridin-2-yl)benzenesulfonamide], the IC50 was above 10000 nM.

Turning to `CCOc1ccc(Oc2ccc(S(=O)(=O)Nc3ccc(F)cn3)cc2C#N)cc1Cl` [Example 116, 4-(3-chloro-4-ethoxyphenoxy)-3-cyano-N-(5-fluoropyridin-2-yl)benzenesulfonamide], the IC50 was above 10000 nM.

In turn, `Cc1c(F)ccc(Oc2ccc(S(=O)(=O)Nc3ccc(F)cn3)cc2C#N)c1C` [Example 172, 3-cyano-4-(4-fluoro-2,3-dimethylphenoxy)-N-(5-fluoropyridin-2-yl)benzenesulfonamide] had a concentration for half-maximal inhibition (IC50) of 502 nM.

`N#Cc1ccc(Oc2ccc(S(=O)(=O)Nc3ccc(F)cn3)cc2C#N)cc1Cl` [Example 1, 4-(3-chloro-4-cyanophenoxy)-3-cyano-N-(5-fluoropyridin-2-yl)benzenesulfonamide] showed an IC50 of 13 nM.

The compound `N#Cc1cccc(Oc2ccc(S(=O)(=O)Nc3ccc(F)cn3)cc2C#N)c1` [Example 14, 3-cyano-4-(3-cyanophenoxy)-N-(5-fluoropyridin-2-yl)benzenesulfonamide] returned an IC50 of 206 nM.

The compound `N#Cc1cc(S(=O)(=O)Nc2ccc(F)cn2)ccc1Oc1c(Cl)cccc1C#N` [Example 73, 4-(2-chloro-6-cyanophenoxy)-3-cyano-N-(5-fluoropyridin-2-yl)benzenesulfonamide] registered a half-inhibitory concentration (IC50) of 418 nM.

For the compound `N#Cc1cc(S(=O)(=O)Nc2ccc(F)cn2)ccc1Oc1cc(F)cc(Cl)c1` [Example 28, 4-(3-chloro-5-fluorophenoxy)-3-cyano-N-(5-fluoropyridin-2-yl)benzenesulfonamide], the IC50 is 92 nM.

For the compound `COc1cc(Oc2ccc(S(=O)(=O)Nc3ccc(F)cn3)cc2C#N)ccc1C#N` [Example 76, 3-cyano-4-(4-cyano-3-methoxyphenoxy)-N-(5-fluoropyridin-2-yl)benzenesulfonamide], the 50% inhibitory concentration (IC50) amounted to 57 nM.

In turn, `N#Cc1ccc(NS(=O)(=O)c2ccc(Oc3ccc(F)c(Cl)c3)c(C#N)c2)nc1` [compound 230] gave an IC50 of 62 nM.
